The results in this text go back to patent US12540131B2 (Merck Sharp & Dohme LLC, priority 2019, dated 2026).

Structures are written as SMILES.

The target in one experiment is GST tagged truncated human mutant G2019S LRRK2 (Homo sapiens (Human), UniProt Q5S007, G2019S). Kind of experiment: LRRK2 Km ATP LanthaScreen Assay. Format: biochemical. The settings on record: G2019S LRRK2, 134 μM ATP (Km ATP), mean values. In short, it runs like this: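 Enzyme (GST-tagged, truncated) was preincubated with compound for 15 min at RT in 50 mM Tris pH 8.5, 10 mM MgCl2, 0.01% Brij-35, 1 mM EGTA, 2 mM DTT and 0.05 mM orthovanadate. Fluorescein-LRRKtide and 134 μM ATP (Km) were then added for 90 min. EDTA and Tb-anti-pERM antibody stopped the reaction; the TR-FRET 520/495 ratio gave 4-parameter IC50s, reported as mean pIC50.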
GST tagged truncated human mutant G2019S LRRK2, sequence (Q5S007 970-2527 G2019S): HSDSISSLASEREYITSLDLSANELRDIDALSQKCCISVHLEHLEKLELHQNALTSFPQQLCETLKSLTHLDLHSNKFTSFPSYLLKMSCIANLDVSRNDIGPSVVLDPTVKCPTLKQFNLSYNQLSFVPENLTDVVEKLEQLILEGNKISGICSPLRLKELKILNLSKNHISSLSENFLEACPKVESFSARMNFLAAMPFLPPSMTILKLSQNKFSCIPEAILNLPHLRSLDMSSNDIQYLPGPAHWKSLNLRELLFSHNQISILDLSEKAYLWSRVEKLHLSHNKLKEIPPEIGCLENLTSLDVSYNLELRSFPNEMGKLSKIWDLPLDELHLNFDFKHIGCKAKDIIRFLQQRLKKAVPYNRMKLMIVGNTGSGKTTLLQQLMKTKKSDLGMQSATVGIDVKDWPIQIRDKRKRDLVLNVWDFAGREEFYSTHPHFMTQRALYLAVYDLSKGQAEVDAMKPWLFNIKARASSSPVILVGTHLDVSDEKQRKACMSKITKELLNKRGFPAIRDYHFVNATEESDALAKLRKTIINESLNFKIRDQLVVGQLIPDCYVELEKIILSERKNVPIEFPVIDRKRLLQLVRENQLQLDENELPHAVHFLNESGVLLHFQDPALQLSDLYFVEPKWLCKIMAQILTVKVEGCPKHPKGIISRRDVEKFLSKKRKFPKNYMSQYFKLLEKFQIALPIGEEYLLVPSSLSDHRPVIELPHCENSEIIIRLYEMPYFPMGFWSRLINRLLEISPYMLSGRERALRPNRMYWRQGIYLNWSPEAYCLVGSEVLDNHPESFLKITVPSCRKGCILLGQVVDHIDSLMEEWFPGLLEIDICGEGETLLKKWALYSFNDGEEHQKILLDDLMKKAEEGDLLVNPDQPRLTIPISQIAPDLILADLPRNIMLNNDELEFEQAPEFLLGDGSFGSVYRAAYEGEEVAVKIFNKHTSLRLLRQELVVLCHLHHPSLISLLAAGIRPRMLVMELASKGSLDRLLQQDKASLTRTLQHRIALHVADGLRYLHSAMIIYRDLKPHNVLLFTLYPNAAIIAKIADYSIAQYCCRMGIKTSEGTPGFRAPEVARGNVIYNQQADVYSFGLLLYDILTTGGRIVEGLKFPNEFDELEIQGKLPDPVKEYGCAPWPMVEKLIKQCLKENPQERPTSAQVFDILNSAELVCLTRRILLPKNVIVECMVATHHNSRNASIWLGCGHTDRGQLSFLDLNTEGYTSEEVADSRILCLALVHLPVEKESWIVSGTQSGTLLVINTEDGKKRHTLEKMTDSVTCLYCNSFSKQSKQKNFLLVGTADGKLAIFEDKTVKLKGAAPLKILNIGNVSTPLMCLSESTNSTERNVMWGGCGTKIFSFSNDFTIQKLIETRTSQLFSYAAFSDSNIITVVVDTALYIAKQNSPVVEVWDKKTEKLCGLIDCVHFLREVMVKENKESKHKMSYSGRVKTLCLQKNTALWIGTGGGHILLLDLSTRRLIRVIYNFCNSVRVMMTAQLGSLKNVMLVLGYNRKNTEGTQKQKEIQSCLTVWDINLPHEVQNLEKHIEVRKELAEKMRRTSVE
For orientation: TR-FRET usually uses a lanthanide donor and a delayed reading to cut background.
For the molecule `CC1(n2ncc(Nc3ncc4cc(Cl)c(C5CCN([C@]6(C)COC[C@@H]6O)CC5)cc4n3)c2Cl)CC1` (single isomer, unassigned) [Ex-2.88, (3S,4S) or (3R,4R) 4-[4-(6-chloro-2-{[5-chloro-1-(1-methylcyclopropyl)-1H-pyrazol-4-yl]amino}quinazolin-7-yl)piperidin-1-yl]-4-methyloxolan-3-ol], the “LRRK2 pIC50” value is above 9.20.
For `Cc1cc2cnc(Nc3cnn(C4CC4)c3Cl)nc2cc1[C@@H]1CCN(C2COC[C@@H]2O)C[C@H]1F` (single isomer, unassigned) [Ex-4.135, (3S,4S)(3S,4S) or (3S,4S)(3R,4R) or (3R,4R)(3S,4S) or (3R,4R)(3R,4R) 4-(4-{2-[(5-chloro-1-cyclopropyl-1H-pyrazol-4-yl)amino]-6-methylquinazolin-7-yl}-3-fluoropiperidin-1-yl)oxolan-3-ol], the “LRRK2 pIC50” value is above 9.20.
`OC1COCC1n1ncc(Nc2ncc3cc(Cl)c(C4CCN(C5COC5)CC4)cc3n2)c1Cl` (centres unmarked) [Ex-2.48, 4-[5-chloro-4-({6-chloro-7-[1-(oxetan-3-yl)piperidin-4-yl]quinazolin-2-yl}amino)-1H-pyrazol-1-yl]oxolan-3-ol]: the “LRRK2 pIC50” value is 8.77.
The same measure, in the same setting: the value for `Cc1cc2cnc(Nc3cnn(C4CC4(F)F)c3C)nc2cc1[C@@H]1CCN([C@@H]2COC[C@@H]2O)C[C@H]1F` (single isomer, unassigned) [Ex-4.146, (R)(3S,4S)(3S,4S) or (R)(3S,4S)(3R,4R) or (R)(3R,4R)(3S,4S) or (R)(3R,4R)(3R,4R) or (S)(3S,4S)(3S,4S) or (S)(3S,4S)(3R,4R) or (S)(3R,4R)(3S,4S) or (S)(3R,4R)(3R,4R) 4-[4-(2-{[1-(2,2-difluorocyclopropyl)-5-methyl-1H-pyrazol-4-yl]amino}-6-methylquinazolin-7-yl)-3-fluoropiperidin-1-yl]oxolan-3-ol] was above 9.20.
Same read-out and setting: the value for `Cc1c(Nc2ncc3cc(Cl)c(C4CCN(C5(C)COC5)CC4)cc3n2)cnn1C(C)(C)C#N` [Ex-2.20, 2-[4-({6-chloro-7-[1-(3-methyloxetan-3-yl)piperidin-4-yl]quinazolin-2-yl}amino)-5-methyl-1H-pyrazol-1-yl]-2-methylpropanenitrile] was above 9.20.
Still for that read-out and setting: under `CC1OCC1N1CCC(c2cc3nc(Nc4cnn(C5CC5)c4Cl)ncc3cc2Cl)CC1` (single isomer, unassigned) [Ex-4.46, (2R,3R) or (2S,3S) or (2S,3R) or (2R,3S) 6-chloro-N-(5-chloro-1-cyclopropyl-1H-pyrazol-4-yl)-7-[1-(2-methyloxetan-3-yl)piperidin-4-yl]quinazolin-2-amine] stands 9.13; under `Clc1cc2cnc(Nc3cnn(C4CC4)c3Cl)nc2cc1C1CC2(C1)CN(C1COC1)C2` [Ex-4.119, 6-chloro-N-(5-chloro-1-cyclopropyl-1H-pyrazol-4-yl)-7-(2-(oxetan-3-yl)-2-azaspiro[3.3]heptan-6-yl)quinazolin-2-amine], 7.96; under `Cc1c(Nc2ncc3cc(Cl)c(C4CCN(C(=O)[C@@H](C)O)C4)cc3n2)cnn1C1CC1` (single isomer, unassigned) [Ex-4.187, (2R)(3S) or (2R)(3R) 1-(3-{6-chloro-2-[(1-cyclopropyl-5-methyl-1H-pyrazol-4-yl)amino]quinazolin-7-yl}pyrrolidin-1-yl)-2-hydroxypropan-1-one], 8.54.
Turning to `O[C@@H]1COC[C@@H]1N1CC[C@@H](c2cc3nc(Nc4cnn(C56CC(C5)C6)c4)ncc3cc2Cl)[C@H](F)C1` (single isomer, unassigned) [Ex-4.153, (3S,4S)(3S,4S) or (3S,4S)(3R,4R) or (3R,4R)(3S,4S) or (3R,4R)(3R,4R) 4-[4-(2-{[1-(bicyclo[1.1.1]pentan-1-yl)-1H-pyrazol-4-yl]amino}-6-chloroquinazolin-7-yl)-3-fluoropiperidin-1-yl]oxolan-3-ol], the “LRRK2 pIC50” value is recorded as above 9.20.
`CC1(N2CCC(n3ncc(Nc4ncc5cc(Cl)c(C6CC6(F)F)cc5n4)c3Cl)C(F)C2)COC1` (single isomer, unassigned) [Ex-3.2, (3R,4R)(7S) or (3R,4R)(7R) or (3S,4S)(7S) or (3S,4S)(7R) 6-chloro-N-(5-chloro-1-(3-fluoro-1-(3-methyloxetan-3-yl)piperidin-4-yl)-1H-pyrazol-4-yl)-7-(2,2-difluorocyclopropyl)quinazolin-2-amine]: the “LRRK2 pIC50” value was determined as 7.07.
The same measure, in the same setting: the value for `COC12CC(n3ncc(Nc4ncc5cc(Cl)c([C@@H]6CCN([C@@H]7COC[C@@H]7O)C[C@H]6F)cc5n4)c3Cl)(C1)C2` (single isomer, unassigned) [Ex-4.262, (3S,4S)(3S,4S) or (3S,4S)(3R,4R) or (3R,4R)(3S,4S) or (3R,4R)(3R,4R) 4-(4-(6-chloro-2-((5-chloro-1-(3-methoxybicyclo[1.1.1]pentan-1-yl)-1H-pyrazol-4-yl)amino)quinazolin-7-yl)-3-fluoropiperidin-1-yl)tetrahydrofuran-3-ol] was 9.19; that for `Cc1c(Nc2ncc3cc(Cl)c(C4CCN(C5COC5C)CC4)cc3n2)cnn1C(C)(C)C#N` (single isomer, unassigned) [Ex-4.134, (2R,3R) or (2S,3S) or (2S,3R) or (2R,3S) 2-[4-({6-chloro-7-[1-(2-methyloxetan-3-yl)piperidin-4-yl]quinazolin-2-yl}amino)-5-methyl-1H-pyrazol-1-yl]-2-methylpropanenitrile] was above 9.20.
Turning to `O[C@H]1COC[C@H]1N1CCC(c2cc3nc(Nc4cnn(C5CC5)c4Cl)ncc3cc2Cl)CC1` (single isomer, unassigned) [Ex-4.104, (3S,4S) or (3R,4R) 4-(4-(6-chloro-2-((5-chloro-1-cyclopropyl-1H-pyrazol-4-yl)amino)quinazolin-7-yl)piperidin-1-yl)tetrahydrofuran-3-ol], the “LRRK2 pIC50” value is listed as above 9.20.
Regarding `Cc1cc(Nc2ncc3cc(Cl)c(C4CCN([C@]5(C)COC[C@@H]5O)CC4)cc3n2)n(C2CC2)n1` (single isomer, unassigned) [Ex-1.28, (3S,4S) or (3R,4R) 4-(4-{6-chloro-2-[(1-cyclopropyl-3-methyl-1H-pyrazol-5-yl)amino]quinazolin-7-yl}piperidin-1-yl)-4-methyloxolan-3-ol], the “LRRK2 pIC50” value amounted to 9.12.
Still for that read-out and setting: under `CC1(N2CCC(c3cc4nc(Nc5cnn(C67CC(C(C)(C)O)(C6)C7)c5)ncc4cc3Cl)CC2)COC1` [Ex-2.58, 2-{3-[4-({6-chloro-7-[1-(3-methyloxetan-3-yl)piperidin-4-yl]quinazolin-2-yl}amino)-1H-pyrazol-1-yl]bicyclo[1.1.1]pentan-1-yl}propan-2-ol] stands 9.17; under `Cc1c(Nc2ncc3cc(Cl)c(C4CCN(C[C@H](O)c5cccc(Cl)c5)CC4)cc3n2)cnn1C1CC1` [Ex-4.194, (1R)-2-(4-{6-chloro-2-[(1-cyclopropyl-5-methyl-1H-pyrazol-4-yl)amino]quinazolin-7-yl}piperidin-1-yl)-1-(3-chlorophenyl)ethan-1-ol], 8.28.
Still for that read-out and setting: the value for `Cn1ncc(Nc2ncc3cc(Cl)c([C@@H]4CCN([C@H]5COC[C@H]5O)C[C@H]4F)cc3n2)c1C1CC1` (single isomer, unassigned) [Ex-4.240, (3S,4S)(3S,4S) or (3S,4S)(3R,4R) or (3R,4R)(3S,4S) or (3R,4R)(3R,4R) 4-(4-{6-chloro-2-[(5-cyclopropyl-1-methyl-1H-pyrazol-4-yl)amino]quinazolin-7-yl}-3-fluoropiperidin-1-yl)oxolan-3-ol] was 7.57.

The experiment is the same for the next values; noted with them: G2019S LRRK2, 134 μM ATP (Km ATP), mean values; read-out: LRRK2 pIC50 (converted).
For the molecule `Cc1c(Nc2ncc3cc(Cl)c(C4CCN(C5COC5)[C@H](C)C4)cc3n2)cnn1C1CC1` (single isomer, unassigned) [Ex-1.13, (S) or (R) 6-chloro-N-(1-cyclopropyl-5-methyl-1H-pyrazol-4-yl)-7-(2-methyl-1-(oxetan-3-yl)piperidin-4-yl)quinazolin-2-amine], the IC50 is 0.776 nM.
For the molecule `N#Cc1cc2cnc(Nc3cnn(C4CC4)c3Cl)nc2cc1[C@H]1CCN(C2COC2)C[C@@H]1F` (single isomer, unassigned) [Ex-6.1, (3R,4R) or (3S,4S) 2-((5-chloro-1-cyclopropyl-1H-pyrazol-4-yl)amino)-7-(3-fluoro-1-(oxetan-3-yl)piperidin-4-yl)quinazoline-6-carbonitrile], the IC50 was 1.91 nM.
Still for that read-out and setting: the value for `CC(O)(Cn1ncc(Nc2ncc3cc(Cl)c(C4CCN(C5COC5)CC4)cc3n2)c1Cl)C(F)(F)F` (single isomer, unassigned) [Ex-8.27, (S) or (R) 3-[5-chloro-4-({6-chloro-7-[1-(oxetan-3-yl)piperidin-4-yl]quinazolin-2-yl}amino)-1H-pyrazol-1-yl]-1,1,1-trifluoro-2-methylpropan-2-ol] was 0.851 nM.
Turning to `Cc1cc2cnc(Nc3cnn(C4CC4)c3Cl)nc2cc1C1CCN([C@@]2(C)COC[C@H]2O)CC1` (single isomer, unassigned) [Ex-2.36, (3S,4S) or (3R,4R) 4-(4-{2-[(5-chloro-1-cyclopropyl-1H-pyrazol-4-yl)amino]-6-methylquinazolin-7-yl}piperidin-1-yl)-4-methyloxolan-3-ol], the IC50 was below 0.631 nM.
Consider `CC1(N2CCC(n3cc(Nc4ncc5cc(Cl)c(C6CC67CC7)cc5n4)cn3)CC2)COC1` (single isomer, unassigned) [Ex-2.5, (S) or (R) 6-chloro-N-{1-[1-(3-methyloxetan-3-yl)piperidin-4-yl]-1H-pyrazol-4-yl}-7-(spiro[2.2]pentan-1-yl)quinazolin-2-amine], for which the IC50 was 2.19 nM.
On the same count and under the same terms, under `Cc1c(Nc2ncc3cc(Cl)c(C4CCN(C5COC5)CC4)cc3n2)cnn1C1CCOC1` (single isomer, unassigned) [Ex-2.23, (S) or (R) 6-chloro-N-[5-methyl-1-(oxolan-3-yl)-1H-pyrazol-4-yl]-7-[1-(oxetan-3-yl)piperidin-4-yl]quinazolin-2-amine] stands 1.15 nM.
